# Source: patent US20230192691A1, “HETEROCYCLIC COMPOUNDS AS BTK INHIBITORS” (Beijing InnoCare Pharma Tech Co., Ltd., priority 2020, published 2023)
# Tests used:
# [1] = target: T1, human-derived recombinant BTK protein (Homo sapiens, UniProt Q06187); test: BTK activity inhibition assay (HTRF in vitro kinase assay); type: biochemical; details: 40 μM ATP, 0.2 ng/μL BTK
# T1 construct: purchased Carna Biosciences 08-180
# Experimental: In vitro kinase assay was used to evaluate the effects of compounds of the present invention on BTK activity (Table 1).
# (§1) By using the homogeneous time-resolved fluorescence (HTRF) kinase detection kit (Cisbio, catalog number 62TK0PEC), the enzymatic activity of BTK is determined by detecting the phosphorylation level of the substrate in the kinase reaction. The reaction buffer contains the enzyme reaction buffer (1×) from the kit, 5 mM MgCl2, 1 mM DTT, 10 nM SEB and 0.01% Tween-20; the kinase reaction solution contains human-derived recombinant BTK protein (Carna Biosciences, Catalog No. 08-180) diluted to 0.2 ng/μL with the reaction buffer; the substrate reaction solution contains biotin-labeled tyrosine kinase substrate diluted to 0.5 μM with the reaction buffer and 40 μM ATP; the detection buffer contains Eu^3+-labeled cage antibody diluted to 0.05 ng/μL and streptavidin-labeled XL665 antibody diluted to 31.25 nM with the reaction buffer; the test compound is dissolved and diluted to 100 μM with DMSO, followed by a 4-fold serial dilution with DMSO to the lowest concentration of 6.1 nM and finally 40-time dilution with the reaction buffer for each concentration point. If the IC50 value of the compound is very low, the initial concentration of the compound is reduced.
# (§2) Add 4 μL test compound solution and 2 μL kinase reaction solution to a 384-well detection plate (Corning, catalog number 3674), mix well and incubate at room temperature for 15 minutes; add 4 μL substrate reaction solution and incubate for 50 minutes; add 10 μL detection buffer, mix well and stand for 60 minutes; detect signal at 620 nm and 665 nm using an Envision plate reader (Perkin Elmer). The signal value (absorbance at 665 nm/absorbance at 620 nm) is positively correlated with the degree of phosphorylation of the substrate, thereby detecting the kinase activity of BTK. In this experiment, the group without BTK is the negative control (100% inhibition) and the group with BTK but no compound is the positive control (0% inhibition). The inhibition curve is plotted and the corresponding IC50 value of the test compound is calculated using XLfit software (ID Business Solutions Ltd., UK).
# [2] = target: T2, human recombinant BTK C481S protein (Homo sapiens, UniProt Q06187, C481S); test: BTK C481S activity inhibition assay (HTRF in vitro kinase assay); type: biochemical; details: 35 μM ATP, 1.5 ng/μL BTK C481S
# T2 construct: made in house
# T2 sequence (Q06187 whole entry C481S): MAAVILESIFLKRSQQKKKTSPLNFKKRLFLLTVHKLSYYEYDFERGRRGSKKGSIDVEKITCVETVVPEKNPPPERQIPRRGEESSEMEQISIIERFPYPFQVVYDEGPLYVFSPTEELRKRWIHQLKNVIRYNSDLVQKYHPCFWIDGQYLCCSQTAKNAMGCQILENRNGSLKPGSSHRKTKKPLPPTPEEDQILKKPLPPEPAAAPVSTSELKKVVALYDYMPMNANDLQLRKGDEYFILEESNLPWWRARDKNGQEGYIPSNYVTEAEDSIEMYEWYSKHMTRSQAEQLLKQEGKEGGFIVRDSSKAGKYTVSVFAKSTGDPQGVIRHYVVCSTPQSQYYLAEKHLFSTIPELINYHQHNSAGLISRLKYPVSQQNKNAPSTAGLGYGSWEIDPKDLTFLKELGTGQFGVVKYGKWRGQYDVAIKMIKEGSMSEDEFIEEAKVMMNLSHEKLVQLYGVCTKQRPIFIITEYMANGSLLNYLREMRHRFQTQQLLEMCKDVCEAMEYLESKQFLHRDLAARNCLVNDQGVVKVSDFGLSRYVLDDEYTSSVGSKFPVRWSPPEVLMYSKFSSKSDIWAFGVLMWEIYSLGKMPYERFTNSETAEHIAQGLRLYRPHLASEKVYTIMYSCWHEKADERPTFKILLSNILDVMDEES
# Experimental: In vitro kinase assay was used to evaluate the effects of compounds of the present invention on BTK C481S activity (Table 1).
# as §1, with “BTK C481S” for “BTK”, “nM SEB,” for “nM SEB”, “contains human” for “contains human-derived”, “protein (purified in-house)” for “protein (Carna Biosciences, Catalog No. 08-180)”, “to 1.5” for “to 0.2”, “and 35” for “and 40”
# as §2, with “activity of BTK C481S. In this” for “activity of BTK. In this”, “with BTK C481 S but no” for “with BTK but no”, “XLfit software (TD Business Solutions” for “XLfit software (ID Business Solutions”
# T1 sequence (Q06187 whole entry): as the sequence (Q06187 whole entry C481S) above, with S481C counted along it
Compound,IC50 [1] [nM],IC50 [2] [nM]
"COc1ccc(F)cc1C(=O)NCc1ccc(-c2nc(C3(C(F)(F)F)CC3)n3ncnc(N)c23)cc1 [Compound 43, N-(4-(4-amino-7-(1-(trifluoromethyl)cyclopropyl)imidazo[5,1-f][1,2,4]triazin-5-yl)benzyl)-5-fluoro-2-methoxybenzamide]",2.7,5.4
"COc1ccc(F)cc1C(=O)NCc1ccc(-c2nc(N3CCOCC3)n3ncnc(N)c23)cc1 [Compound 45, N-(4-(4-amino-7-morpholinoimidazo[5,1-f][1,2,4]triazin-5-yl)benzyl)-5-fluoro-2-methoxybenzamide]",9.4,2.6
"COc1ccc(F)cc1C(=O)NCc1ccc(-c2nc([C@]3(C)CC[C@](C)(C(=O)O)CC3)n3ncnc(N)c23)cc1 [Compound 46, (1s,4s)-4-(4-amino-5-(4-((5-fluoro-2-methoxybenzamido)methyl)phenyl)imidazo[5,1-f][1,2,4]triazin-7-yl)-1,4-dimethylcyclohexane-1-carboxylic acid]",7.7,1.6
"COc1ccc(F)cc1C(=O)NCc1ccc(-c2nc([C@]3(C)CC[C@@](C)(C(=O)O)CC3)n3ncnc(N)c23)cc1 [Compound 47, (1r,4r)-4-(4-amino-5-(4-((5-fluoro-2-methoxybenzamido)methyl)phenyl)imidazo[5,1-f][1,2,4]triazin-7-yl)-1,4-dimethylcyclohexane-1-carboxylic acid]",1.3,1.4
"COc1ccc(F)cc1C(=O)NCc1ccc(-n2c(=O)n(C3CCOCC3)c3ncnc(N)c32)cc1 [Compound 51, N-(4-(6-amino-8-oxo-9-(tetrahydro-2H-pyran-4-yl)-8,9-dihydro-7H-purin-7-yl)benzyl)-5-fluoro-2-methoxybenzamide]",4,9.2
"COc1ccc(F)cc1C(=O)NCc1ccc(-n2c(=O)n(C(C)C(F)(F)F)c3ncnc(N)c32)cc1 (stereo not shown) [Compound 53, N-(4-(6-amino-8-oxo-9-(1,1,1-trifluoropropan-2-yl)-8,9-dihydro-7H-purin-7-yl)benzyl)-5-fluoro-2-methoxybenzamide]",5.6,21

# Second part, the compound after the results:
IC50 [1] [nM],IC50 [2] [nM],Compound
10,7.1,"COc1ccc(F)cc1C(=O)NCc1ccc(-c2nc(N3CCOCC3)n3ccnc(N)c23)cc1 [Compound 44, N-(4-(8-amino-3-morpholinoimidazo[1,5-a]pyrazin-1-yl)benzyl)-5-fluoro-2-methoxybenzamide]"
1.2,8.2,"COc1ccc(F)cc1C(=O)NCc1ccc(-n2c(=O)n(C34CCC(C(=O)O)(CC3)CC4)c3ncnc(N)c32)cc1 [Compound 48, 4-(6-amino-7-(4-((5-fluoro-2-methoxybenzamido)methyl)phenyl)-8-oxo-7,8-dihydro-9H-purin-9-yl)bicyclo[2.2.2]octane-1-carboxylic acid]"
2.4,20,"COc1ccc(F)cc1C(=O)NCc1ccc(-n2c(=O)n([C@H]3CC[C@H](CO)CC3)c3ncnc(N)c32)cc1 [Compound 50, N-(4-(6-amino-9-((1r,4r)-4-(hydroxymethyl)cyclohexyl)-8-oxo-8,9-dihydro-7H-purin-7-yl)benzyl)-5-fluoro-2-methoxybenzamide]"
7.2,30,"COc1ccc(F)cc1C(=O)NCc1ccc(-n2c(=O)n(C3CCOCC3)c3ccnc(N)c32)cc1 [Compound 52, N-(4-(4-amino-2-oxo-1-(tetrahydro-2H-pyran-4-yl)-1,2-dihydro-3H-imidazo[4,5-c]pyridin-3-yl)benzyl)-5-fluoro-2-methoxybenzamide]"
5.8,6.1,"COc1ccc(F)cc1C(=O)NCc1ccc(-n2c(=O)n(C34CCC(C(=O)N5CCOCC5)(CC3)CC4)c3ncnc(N)c32)cc1 [Compound 54, N-(4-(6-amino-9-(4-(morpholine-4-carbonyl)bicyclo[2.2.2]octan-1-yl)-8-oxo-8,9-dihydro-7H-purin-7-yl)benzyl)-5-fluoro-2-methoxybenzamide]"
